Assay results: US9796711B2, “Substituted pyrazolo[3,4-b]pyridin-6-carboxylic acids and method of use” (AbbVie S.àr.l., priority 2015, dated 2017)

Experiments:
ΔF508-CFTR [1] = target: T1, ΔF508-CFTR (Homo sapiens, UniProt P13569, DEL508-508); experiment: CFTR cell surface levels using HRP-tagged ΔF508-CFTR expressing CFBE cells, intrinsic corrector capacity; type: cell-based
T1 construct: host or cells: CFBE41o-, doxycycline-inducible
In short: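 Here the cells express ΔF508-CFTR with horseradish peroxidase inserted in extracellular loop 4, so only rescued channel at the surface gives luminescent signal. Compounds act on their own, 20 h at the reduced temperature of 33 °C; values are percent activity relative to DMSO and a 3 μM corrector.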

ΔF508-CFTR [2] = target: T1, ΔF508-CFTR; experiment: CFTR cell surface levels using HRP-tagged ΔF508-CFTR expressing CFBE cells, in the presence of a co-corrector; type: cell-based
In short: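 Cells were seeded with 0.5 μg/mL doxycycline and held 68 h at 37 °C. Test compounds plus 3 μM co-corrector (final 0.1% DMSO) were then added for 20 h at 33 °C. Washed cells received HRP substrate, and luminescence was normalized between DMSO and 3 μM co-corrector controls.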

[3] = HRP-tagged ΔF508-CFTR expressing CFBE cells, intrinsic corrector capacity (no co-corrector), 33° C., 20 hours
[4] = HRP-tagged ΔF508-CFTR expressing CFBE cells, intrinsic corrector capacity (no co-corrector), 33° C., 20 hours, read-out: EC50
[5] = HRP-tagged ΔF508-CFTR expressing CFBE cells, in the presence of 3 μM co-corrector
[6] = HRP-tagged ΔF508-CFTR expressing CFBE cells, in the presence of 3 μM co-corrector, read-out: EC50

T1 sequence (P13569 with tags, fused parts or gaps DEL508-508): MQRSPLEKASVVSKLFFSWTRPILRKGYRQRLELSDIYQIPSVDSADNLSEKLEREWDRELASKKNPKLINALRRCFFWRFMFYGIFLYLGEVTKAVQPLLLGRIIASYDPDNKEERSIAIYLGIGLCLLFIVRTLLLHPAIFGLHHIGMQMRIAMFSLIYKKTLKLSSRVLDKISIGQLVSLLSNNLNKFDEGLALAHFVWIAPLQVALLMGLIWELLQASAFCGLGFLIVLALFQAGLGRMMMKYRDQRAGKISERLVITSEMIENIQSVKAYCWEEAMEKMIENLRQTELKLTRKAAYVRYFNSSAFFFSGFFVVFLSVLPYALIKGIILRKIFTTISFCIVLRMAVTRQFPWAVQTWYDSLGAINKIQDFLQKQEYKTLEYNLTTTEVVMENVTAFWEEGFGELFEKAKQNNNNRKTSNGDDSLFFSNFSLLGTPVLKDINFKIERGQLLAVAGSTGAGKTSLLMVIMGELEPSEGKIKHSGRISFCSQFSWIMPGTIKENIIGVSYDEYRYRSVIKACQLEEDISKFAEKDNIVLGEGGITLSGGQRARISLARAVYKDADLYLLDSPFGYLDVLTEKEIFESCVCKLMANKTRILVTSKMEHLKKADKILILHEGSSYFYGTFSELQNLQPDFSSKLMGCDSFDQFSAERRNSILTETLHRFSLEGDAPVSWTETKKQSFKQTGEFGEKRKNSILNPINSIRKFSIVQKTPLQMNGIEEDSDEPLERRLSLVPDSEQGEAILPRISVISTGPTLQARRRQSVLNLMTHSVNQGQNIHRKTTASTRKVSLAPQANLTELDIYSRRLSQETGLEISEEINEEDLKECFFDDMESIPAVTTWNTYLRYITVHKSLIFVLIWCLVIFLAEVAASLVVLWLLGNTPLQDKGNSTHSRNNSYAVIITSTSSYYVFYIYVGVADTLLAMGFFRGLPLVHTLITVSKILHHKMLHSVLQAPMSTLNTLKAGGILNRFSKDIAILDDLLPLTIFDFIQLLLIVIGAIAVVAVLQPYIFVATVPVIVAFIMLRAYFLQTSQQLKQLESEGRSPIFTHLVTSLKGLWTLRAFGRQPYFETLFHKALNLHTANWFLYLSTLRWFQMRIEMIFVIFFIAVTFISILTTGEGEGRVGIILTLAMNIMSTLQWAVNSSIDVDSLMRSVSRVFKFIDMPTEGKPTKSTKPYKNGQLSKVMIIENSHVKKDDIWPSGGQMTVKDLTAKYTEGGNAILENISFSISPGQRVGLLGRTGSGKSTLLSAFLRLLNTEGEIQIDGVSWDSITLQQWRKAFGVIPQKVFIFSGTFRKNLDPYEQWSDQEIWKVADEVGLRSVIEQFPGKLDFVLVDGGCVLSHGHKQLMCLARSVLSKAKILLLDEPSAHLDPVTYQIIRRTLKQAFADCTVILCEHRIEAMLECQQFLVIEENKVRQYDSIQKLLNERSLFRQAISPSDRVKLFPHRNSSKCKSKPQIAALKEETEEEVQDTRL

| Compound | % Activation (ΔF508-CFTR [1]; [3]) [%] | EC50 (ΔF508-CFTR [1]; [4]) [µM] | % Activation (ΔF508-CFTR [2]; [5]) [%] | EC50 (ΔF508-CFTR [2]; [6]) [µM] | EC50 (ΔF508-CFTR [1]) [µM] | EC50 (ΔF508-CFTR [2]) [µM] |
| --- | --- | --- | --- | --- | --- | --- |
| CC(C)(C)OC(=O)N1CCC(Oc2nn(-c3ccccc3)c3nc(C(=O)O)cc(-c4ccc(N5CCC(C#N)CC5)nc4)c23)CC1 [compound 553, 3-{[1-(tert-butoxycarbonyl)piperidin-4-yl]oxy}-4-[6-(4-cyanopiperidin-1-yl)pyridin-3-yl]-1-phenyl-1H-pyrazolo[3,4-b]pyridine-6-carboxylic acid] | 189.7 | 0.37 | 419.05 | 0.119 | – | – |
| CCCOCCN1CCN(c2cc(C(=O)O)nc3c2c(C2CCC2)nn3-c2ccccc2)CC1 [compound 555, 3-cyclobutyl-1-phenyl-4-[4-(2-propoxyethyl)piperazin-1-yl]-1H-pyrazolo[3,4-b]pyridine-6-carboxylic acid] | 152 | 0.331 | 310.65 | 0.169 | – | – |
| O=C(O)c1cc(N2CCOC(CN3CCCCC3)C2)c2c(C3CCC3)nn(-c3ccccc3)c2n1 (stereo not shown) [compound 556, 3-cyclobutyl-1-phenyl-4-{2-[(piperidin-1-yl)methyl]morpholin-4-yl}-1H-pyrazolo[3,4-b]pyridine-6-carboxylic acid] | 140.1 | 0.838 | 324 | 0.682 | – | – |
| O=C(O)c1cc(N2CCN(CCCN3CCOCC3)CC2)c2c(C3CCC3)nn(-c3ccccc3)c2n1 [compound 558, 3-cyclobutyl-4-{4-[3-(morpholin-4-yl)propyl]piperazin-1-yl}-1-phenyl-1H-pyrazolo[3,4-b]pyridine-6-carboxylic acid] | 121.3 | 1.37 | 322.5 | 0.778 | – | – |
| N#CCCN1CCN(c2cc(C(=O)O)nc3c2c(C2CCC2)nn3-c2ccccc2)CC1 [compound 561, 4-[4-(2-cyanoethyl)piperazin-1-yl]-3-cyclobutyl-1-phenyl-1H-pyrazolo[3,4-b]pyridine-6-carboxylic acid] | 174.8 | 1.59 | 348 | 0.427 | – | – |
| CN(C)CC1CN(c2cc(C(=O)O)nc3c2c(C2CCC2)nn3-c2ccccc2)CCO1 (stereo not shown) [compound 562, 3-cyclobutyl-4-{2-[(dimethylamino)methyl]morpholin-4-yl}-1-phenyl-1H-pyrazolo[3,4-b]pyridine-6-carboxylic acid] | 154.7 | 1.77 | 347 | 0.921 | – | – |
| CCOCCN1CCN(c2cc(C(=O)O)nc3c2c(C2CCC2)nn3-c2ccccc2)CC1 [compound 566, 3-cyclobutyl-4-[4-(2-ethoxyethyl)piperazin-1-yl]-1-phenyl-1H-pyrazolo[3,4-b]pyridine-6-carboxylic acid] | 150.5 | 0.388 | 365.3 | 0.407 | – | – |
| COCCN1CCN(c2cc(C(=O)O)nc3c2c(C2CCC2)nn3-c2ccccc2)CC1 [compound 571, 3-cyclobutyl-4-[4-(2-methoxyethyl)piperazin-1-yl]-1-phenyl-1H-pyrazolo[3,4-b]pyridine-6-carboxylic acid] | 189.6 | – | 334.05 | – | 0.812 | 0.328 |
| CC(C)OC1CN(c2cc(C(=O)O)nc3c2c(C2CCC2)nn3-c2ccccc2)C1 [compound 573, 3-cyclobutyl-1-phenyl-4-{3-[(propan-2-yl)oxy]azetidin-1-yl}-1H-pyrazolo[3,4-b]pyridine-6-carboxylic acid] | 149.7 | 0.974 | 376 | 0.299 | – | – |
| O=C(O)c1cc(N2CC[C@@H](N3CCOCC3)C2)c2c(C3CCC3)nn(-c3ccccc3)c2n1 [compound 577, 3-cyclobutyl-4-[(3R)-3-(morpholin-4-yl)pyrrolidin-1-yl]-1-phenyl-1H-pyrazolo[3,4-b]pyridine-6-carboxylic acid] | 108 | 3.03 | 300.47 | 1.15 | – | – |
| O=C(O)c1cc(OC2CCC(F)(F)CC2)c2c(C3CCC3)nn(-c3ccccc3)c2n1 [compound 578, 3-cyclobutyl-4-[(4,4-difluorocyclohexyl)oxy]-1-phenyl-1H-pyrazolo[3,4-b]pyridine-6-carboxylic acid] | 118.2 | 0.334 | 301.55 | 0.224 | – | – |
| O=C(O)c1cc(OC2CCOCC2)c2c(C3CCC3)nn(-c3ccccc3)c2n1 [compound 579, 3-cyclobutyl-4-[(oxan-4-yl)oxy]-1-phenyl-1H-pyrazolo[3,4-b]pyridine-6-carboxylic acid] | 97.37 | 0.238 | 263.5 | 0.267 | – | – |
| CO[C@H]1CCCC[C@@H]1Oc1cc(C(=O)O)nc2c1c(C1CCC1)nn2-c1ccccc1 [compound 580, 3-cyclobutyl-4-{[(1S,2S)-2-methoxycyclohexyl]oxy}-1-phenyl-1H-pyrazolo[3,4-b]pyridine-6-carboxylic acid] | 88.82 | 0.333 | 288 | 0.312 | – | – |
| CCC1(COc2cc(C(=O)O)nc3c2c(C2CCC2)nn3-c2ccccc2)COC1 [compound 581, 3-cyclobutyl-4-[(3-ethyloxetan-3-yl)methoxy]-1-phenyl-1H-pyrazolo[3,4-b]pyridine-6-carboxylic acid] | 146 | 0.25 | 377.8 | 0.203 | – | – |
| O=C(O)c1cc(O[C@@H]2CCOC2)c2c(C3CCC3)nn(-c3ccccc3)c2n1 [compound 582, 3-cyclobutyl-4-{[(3R)-oxolan-3-yl]oxy}-1-phenyl-1H-pyrazolo[3,4-b]pyridine-6-carboxylic acid] | 92.03 | 0.903 | 307.5 | 0.614 | – | – |
| O=C(O)c1cc(O[C@H]2CCOC2)c2c(C3CCC3)nn(-c3ccccc3)c2n1 [compound 583] | 134.7 | 1.02 | 287.75 | 0.46 | – | – |
| COCC1CCN(c2cc(C(=O)O)nc3c2c(C(C)C)nn3-c2ccnc(N3CCOCC3)n2)CC1 [compound 589] | 232.15 | 0.458 | 451.75 | 0.303 | – | – |
| O=C(O)c1cc(NCC2CCOCC2)c2c(C3CCC3)nn(-c3ccccc3)c2n1 [compound 590, 3-cyclobutyl-4-{[(oxan-4-yl)methyl]amino}-1-phenyl-1H-pyrazolo[3,4-b]pyridine-6-carboxylic acid] | 141.3 | – | 310.45 | – | 2.61 | 2.03 |
| N#CC1CCN(c2ccc(-c3cc(C(=O)O)nc4c3c(OC3CCOC3)nn4-c3ccccc3)cn2)CC1 (stereo not shown) [compound 591, 4-[6-(4-cyanopiperidin-1-yl)pyridin-3-yl]-3-[(oxolan-3-yl)oxy]-1-phenyl-1H-pyrazolo[3,4-b]pyridine-6-carboxylic acid] | 106.3 | 0.926 | 286.4 | 0.45 | – | – |
| N#CC1CCN(c2ccc(-c3cc(C(=O)O)nc4c3c(OC3COC3)nn4-c3ccccc3)cn2)CC1 [compound 592, 4-[6-(4-cyanopiperidin-1-yl)pyridin-3-yl]-3-[(oxetan-3-yl)oxy]-1-phenyl-1H-pyrazolo[3,4-b]pyridine-6-carboxylic acid] | 116.6 | 1.16 | 279 | 0.584 | – | – |
| O=C(O)c1cc(N2CCC(F)(F)CC2)c2c(C3CCC3)nn(-c3ccccc3)c2n1 [compound 594, 3-cyclobutyl-4-(4,4-difluoropiperidin-1-yl)-1-phenyl-1H-pyrazolo[3,4-b]pyridine-6-carboxylic acid] | 75.66 | 0.787 | 269.8 | 0.621 | – | – |
| COCC1(F)CCCN(c2cc(C(=O)O)nc3c2c(C2CCC2)nn3-c2ccccc2)C1 (stereo not shown) [compound 595, 3-cyclobutyl-4-[3-fluoro-3-(methoxymethyl)piperidin-1-yl]-1-phenyl-1H-pyrazolo[3,4-b]pyridine-6-carboxylic acid] | 162.8 | 0.347 | 383.8 | 0.207 | – | – |
| O=C(O)c1cc(N2CCOC(C(F)(F)F)C2)c2c(C3CCC3)nn(-c3ccccc3)c2n1 (stereo not shown) [compound 596, 3-cyclobutyl-1-phenyl-4-[2-(trifluoromethyl)morpholin-4-yl]-1H-pyrazolo[3,4-b]pyridine-6-carboxylic acid] | 99.54 | 0.735 | 299.4 | 0.522 | – | – |
| O=C(O)c1cc(OC2CN(C3CCCCC3)C2)c2c(C3CCC3)nn(-c3ccccc3)c2n1 [compound 599, 3-cyclobutyl-4-[(1-cyclohexylazetidin-3-yl)oxy]-1-phenyl-1H-pyrazolo[3,4-b]pyridine-6-carboxylic acid] | 81.59 | 0.357 | 248.4 | 0.376 | – | – |
| CC(C)c1nn(-c2cccc(N(C)C)c2)c2nc(C(=O)O)cc(OCC3CCOCC3)c12 [compound 602, 1-[3-(dimethylamino)phenyl]-4-[(oxan-4-yl)methoxy]-3-(propan-2-yl)-1H-pyrazolo[3,4-b]pyridine-6-carboxylic acid] | 159.3 | 0.256 | 393.4 | 0.134 | – | – |
